The target of assay [1] is Estrogen receptor beta (Homo sapiens) (UniProt Q92731). Description: Binding affinity to human ERbeta relative to estradiol by radiometric binding assay.
Assay [2] has as its target Estrogen receptor alpha (Homo sapiens) (UniProt P03372). The assay is described as follows: Binding affinity to human ERalpha relative to estradiol by radiometric binding assay.
For a further assay, the species on record is Homo sapiens. The assay is described as follows: Selectivity for ERbeta over ERalpha.

Sequence of Estrogen receptor alpha (Homo sapiens) (P03372 whole entry, looked up): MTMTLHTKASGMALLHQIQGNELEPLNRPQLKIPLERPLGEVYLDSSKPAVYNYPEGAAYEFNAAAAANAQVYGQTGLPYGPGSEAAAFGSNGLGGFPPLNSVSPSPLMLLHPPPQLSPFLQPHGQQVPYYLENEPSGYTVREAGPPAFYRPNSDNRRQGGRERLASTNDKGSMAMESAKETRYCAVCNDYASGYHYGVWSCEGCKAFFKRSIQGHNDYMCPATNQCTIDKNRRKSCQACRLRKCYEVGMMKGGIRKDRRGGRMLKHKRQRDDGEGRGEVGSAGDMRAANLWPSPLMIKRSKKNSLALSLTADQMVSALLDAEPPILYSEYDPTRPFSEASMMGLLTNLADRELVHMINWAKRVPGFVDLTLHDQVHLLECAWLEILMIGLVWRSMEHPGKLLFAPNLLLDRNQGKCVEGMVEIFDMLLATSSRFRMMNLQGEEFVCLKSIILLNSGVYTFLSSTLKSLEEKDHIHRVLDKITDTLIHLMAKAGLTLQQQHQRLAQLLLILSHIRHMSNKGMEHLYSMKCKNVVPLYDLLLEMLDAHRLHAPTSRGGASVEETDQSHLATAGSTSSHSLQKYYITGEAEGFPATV
Sequence of Estrogen receptor beta (Homo sapiens) (Q92731 whole entry, looked up): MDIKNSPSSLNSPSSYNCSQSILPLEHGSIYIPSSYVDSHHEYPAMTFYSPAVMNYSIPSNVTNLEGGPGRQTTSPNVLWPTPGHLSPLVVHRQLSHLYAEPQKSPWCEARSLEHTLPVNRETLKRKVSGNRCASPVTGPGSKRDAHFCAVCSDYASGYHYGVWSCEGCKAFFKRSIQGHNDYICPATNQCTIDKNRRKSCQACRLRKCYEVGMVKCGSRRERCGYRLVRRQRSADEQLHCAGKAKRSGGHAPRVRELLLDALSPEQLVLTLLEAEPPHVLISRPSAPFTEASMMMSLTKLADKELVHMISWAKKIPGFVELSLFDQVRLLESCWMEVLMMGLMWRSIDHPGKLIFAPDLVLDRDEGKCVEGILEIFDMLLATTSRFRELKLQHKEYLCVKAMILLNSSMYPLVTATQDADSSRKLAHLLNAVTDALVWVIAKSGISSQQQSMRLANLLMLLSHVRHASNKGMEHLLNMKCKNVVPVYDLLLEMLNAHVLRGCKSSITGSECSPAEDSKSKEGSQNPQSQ

Turning to `COC(=O)CC1CCCC(=C(c2ccc(O)cc2)c2ccc(O)cc2)C1` (configuration not stated), the relative binding affinity (RBA) in assay [1] amounted to 10.3; in assay [2] it was 58.5. Further, the Ratio in the assay listed under Homo sapiens came to 0.18.
The corresponding values for `COC(=O)C(C(=O)OC)C1CCCC(=C(c2ccc(O)cc2)c2ccc(O)cc2)C1` (configuration not stated) are 0.234, 19.5 and 0.012.
The corresponding values for `Oc1ccc(C(=C2CCC2)c2ccc(O)cc2)cc1` are 20.5, 5.61 and 3.7.
In the case of `Oc1ccc(C(=C2CCC(F)CC2)c2ccc(O)cc2)cc1` (configuration not stated), the results for the relative binding affinity (RBA) in assay [1] and in assay [2] were 61.8 and 27, respectively. In the assay filed under Homo sapiens, the Ratio came to 2.3.
The corresponding values for `CC1CCC(=C(c2ccc(O)cc2)c2ccc(O)cc2)CC1` (configuration not stated) are 274, 66.5 and 4.1.
The corresponding values for `COC(=O)C1CCCC(=C(c2ccc(O)cc2)c2ccc(O)cc2)C1` (configuration not stated) are 36.5, 23.7 and 1.5.
In the case of `OCCC1CCC(=C(c2ccc(O)cc2)c2ccc(O)cc2)CC1` (configuration not stated), the relative binding affinity (RBA) in assay [1] was found to be 0.372; in assay [2] it was 2.61. In addition, the Ratio in the assay filed under Homo sapiens was 0.14.
Regarding `Oc1ccc(C(=C2CCC(CCOCCCCF)CC2)c2ccc(O)cc2)cc1` (configuration not stated), the relative binding affinity (RBA) in assay [1] stood at 1.45; in assay [2] it was 3.77. The Ratio in the assay listed under Homo sapiens is 0.38.
For the compound `OCCCC1CCCC(=C(c2ccc(O)cc2)c2ccc(O)cc2)C1` (configuration not stated), the relative binding affinity (RBA) in assay [1] turned out to be 46.1; in assay [2], 47.2. For the same compound, in the assay filed under Homo sapiens, the Ratio is 0.98.
With `Oc1ccc(C(=C2CCCCC2)c2ccc(O)cc2)cc1`, the relative binding affinity (RBA) is 285 in assay [1] and 124 in assay [2]. Also, in the assay listed under Homo sapiens, the Ratio was 2.3.
With `Oc1ccc(C(=C2CCC(O)CC2)c2ccc(O)cc2)cc1` (configuration not stated), the relative binding affinity (RBA) in assay [1] stood at 0.307; in assay [2], 0.327. In addition, the Ratio in the assay listed under Homo sapiens came out at 0.94.
On to `Oc1ccc(C(=C2CCCC(CCF)C2)c2ccc(O)cc2)cc1` (configuration not stated), for which the relative binding affinity (RBA) in assay [1] was 129; in assay [2], 122. The Ratio in the assay filed under Homo sapiens worked out at 1.1.
As to `OCC1CCC(=C(c2ccc(O)cc2)c2ccc(O)cc2)CC1` (configuration not stated), the relative binding affinity (RBA) came to 0.841 in assay [1] and 0.846 in assay [2]. Further, the Ratio in the assay listed under Homo sapiens was found to be 0.99.
For the compound `Oc1ccc(C(=C2CCCC(CCCF)C2)c2ccc(O)cc2)cc1` (configuration not stated), the relative binding affinity (RBA) in assay [1] stood at 91.4; in assay [2], 160. For the same compound, the Ratio in the assay filed under Homo sapiens was 0.57.
For `COC(=O)CC1CCC(=C(c2ccc(O)cc2)c2ccc(O)cc2)CC1` (configuration not stated), in that order: 1.72, 10.7 and 0.16.
Regarding `Oc1ccc(C(=C2CCC(CF)CC2)c2ccc(O)cc2)cc1` (configuration not stated), the relative binding affinity (RBA) is 41.5 in assay [1] and 18.1 in assay [2]. The Ratio in the assay filed under Homo sapiens was 2.3.
Take `CCOC(=O)C1CCC(=C(c2ccc(O)cc2)c2ccc(O)cc2)CC1` (configuration not stated): the relative binding affinity (RBA) in assay [1] is 3.02; in assay [2], 6.77. In addition, in the assay filed under Homo sapiens, the Ratio was determined as 0.45.
The corresponding values for `Oc1ccc(C(=C2CCCCCC2)c2ccc(O)cc2)cc1` are 354, 110 and 3.2.
For the compound `OCC1CCCC(=C(c2ccc(O)cc2)c2ccc(O)cc2)C1` (configuration not stated), the results for the relative binding affinity (RBA) in assay [1] and in assay [2] were 39.6 and 24.8, respectively. Also, the Ratio in the assay listed under Homo sapiens turned out to be 1.6.
For `CCC1CCC(=C(c2ccc(O)cc2)c2ccc(O)cc2)CC1` (configuration not stated), in that order: 75.6, 62.7 and 1.2.
On to `CCOCC1CCC(=C(c2ccc(O)cc2)c2ccc(O)cc2)CC1` (configuration not stated), for which the values for the relative binding affinity (RBA) in assay [1] and in assay [2] were 2.82 and 4.88, respectively. For the same compound, the Ratio in the assay listed under Homo sapiens came to 0.58.
For the compound `Oc1ccc(C(=C2CCC(CCF)CC2)c2ccc(O)cc2)cc1` (configuration not stated), the figures for the relative binding affinity (RBA) in assay [1] and in assay [2] were 18.9 and 15.9, respectively. The Ratio in the assay filed under Homo sapiens turned out to be 1.2.
On to `Oc1ccc(C(=C2CCCC2)c2ccc(O)cc2)cc1`, for which the relative binding affinity (RBA) came out at 137 in assay [1] and 17.8 in assay [2]. Moreover, in the assay filed under Homo sapiens, the Ratio was 7.7.
The corresponding values for `OCCC1CCCC(=C(c2ccc(O)cc2)c2ccc(O)cc2)C1` (configuration not stated) are 57.6, 33.9 and 1.7.

The record behind these values is ChEMBL document CHEMBL1146101, “Fluorine-substituted cyclofenil derivatives as estrogen receptor ligands: synthesis and structure-affinity relationship study of potential positron emission tomography agents for imaging estrogen receptors in breast cancer” (J Med Chem, 2006).
